Data: patent US7601717B2, “Pterin analogs” (BioMarin Pharmaceutical Inc., priority 2008, dated 2009)
Where a name gives a salt, the structure may show the parent alone. Read-outs that look alike come from different tables or passages of the source.

How the values were obtained:
[1] = Pharmacokinetics and bioavailability, single intravenous or oral doses, partial Latin square crossover; format: in vivo, male cynomolgus monkeys; conditions: for bioavailability: male, cynomolgus monkey, plasma, po; for Absolute Bioavailability of the BH4 Analog: dihydrochloride; for Val-BH4/(BH4 + BH2 + B), analog remaining in systemic circulation / Val-BH4/BH4, analog remaining in systemic circulation: determined from AUC0-t; for Val-BH4/total biopterin, analog remaining in systemic circulation: from AUC0-t, total biopterin adjusted to BH4 analog
Description: This study was to determine the pharmacokinetics and relative bioavailability of BH4 when given as parent BH4 or an analog of BH4 to male cynomolgus monkeys as single intravenous or oral doses in a partial Latin square crossover design.
Six, male, non-naïve cynomolgus monkeys were fasted overnight prior to dosing through approximately 4 hours postdose. Individual doses were calculated based on body weights recorded on each day of dose administration. Five experimental groups of monkeys were evaluated using a partial Latin square crossover design: Group 1-2 mg/kg BH4 by IV; Group 2-40 mg/kg BH4 by oral gavage; Group 3-2 mg/kg BH4 analog by IV; Group 4-5 mg/kg BH4 analog by oral gavage; Group 5-20 mg/kg BH4 analog by oral gavage. The doses of BH4 analog were prepared as mg/kg equivalents of BH4 (calculated using BH4 and BH4 analog 2HCl molecular weights). The partial Latin square crossover design was used to minimize dose sequence effect on interanimal variability for statistical purposes. The monkeys received their respective dose of BH4 intravenously (2 mL/kg, dissolved in 100 μM ascorbic acid and 5% mannitol in sterile water for injection, SWFI), Example 5 intravenously (2 mL/kg, dissolved in 100 μM ascorbic acid and 5% mannitol in citrate buffer, pH 3) or BH4 or Example 5 by oral gavage (4 mL/kg, dissolved in 100 μM ascorbic acid in SWFI). Prior to use, all intravenous dose formulations were filtered into the final dosing container using a 0.22-micron syringe filter (Millex GS or GV; Millipore).
For intravenous administration, blood (approximately 1 mL) was collected from each animal predose and at 0.083, 0.25, 0.5, 1, 2, 3, 4, 6, 8, 12, 18, and 24 hours postdose. For oral administration, blood (approximately 1 mL) was collected from each animal predose and at 0.25, 0.5, 1, 2, 3, 4, 6, 8, 12, 18, and 24 hours postdose. Blood was collected into tubes containing K2-EDTA anticoagulant, which was maintained in chilled condition, and centrifuged to obtain plasma. Centrifugation began within 30 minutes of collection. Three, 100-μL aliquots of each plasma sample were promptly transferred following centrifugation into individual tubes containing 0.1% (w/v) dithioerythritol (DTE) for storage. Once the plasma aliquot was added, each tube was vortexed briefly to mix then immediately placed on dry ice.

[2] = HPLC with ECD and fluorescence detection of biopterins in plasma of dosed monkeys; format: in vivo, cynomolgus monkeys; conditions: plasma 2 hours post-administration, 2% MeOH mobile phase, FIG. 16
Description: An HPLC method using Electrochemical Detection (ECD) and Fluorescence (FL) detection is advantageous as it allows for the measurement of each of the discrete biopterin compounds (BH4, BH2 and B) as well as analog, such as prodrug, forms (e.g., Val-BH4, Val-BH2, and Val-B).
The concentrations of different biopterins (BH4, BH2 and B) and Val-biopterins are determined by initially using reverse phase HPLC for separation, followed by ECD and FL detection. BH4 and Val-BH4 are measured using ECD in which BH4 and Val-BH4 are oxidized by electrode 1 to quinonoid dihydrobiopterin forms (qBH2 or Val-qBH2, respectively), a short-lived dihydrobiopterin intermediate, and then reduced back to BH4 or Val-BH4 at electrode 2. The detector then uses the current generated by this reduction reaction to determine the concentration of BH4 or Val-BH4, respectively. BH2, Val-BH2, B and Val-B are measured by fluorescence detection. […] This is desirable because BH2 is not fluorescently active or easily measured and must be converted to biopterin, which is easily measured using fluorescence. […] In one embodiment, the biopterin analogs, such as valine biopterin derivatives, are measured using a 10% MeOH-containing mobile phase whereas the biopterins are measured using a 2% MeOH-containing mobile phase.
The compound of Example 5 can be detected in buffer and by extraction using this assay. […]

eNOS = eNOS (Homo sapiens, UniProt P29474); test: Cell-free eNOS activity assay reconstituted from purified components; format: biochemical; conditions: 1, 10, 100 μM, 90 minutes at 37° C., nitrite by DAN fluorescence
Description: Also tested was the effect of BH4 analogs compared to free BH4 on stimulation of eNOS activity in a cell-free assay system reconstituted from purified components. 90 μL of reaction mixture (25 mM Tris-HCL, pH7.4, 1 μM FAD, 1 μM FMN, 100 μM L-Arginine, 2.5 mM CaCl2, 1 mM NADPH, 0.04 mg/ml Calmodulin) was mixed with 5 μl of eNOS (15 units/ml) and 5 μl of BH4 or BH4 analogs (1, 10, 100 μM), followed by incubation in a 37° C. water bath for 90 minutes. Then 100 μl of water and 20 μl of the nitrite fluorescent probe DAN (2,3-diaminonaphthalene, 316 μM) were added to each reaction and incubated at room temperature for 10 minutes. The dye DAN reacts with nitrite to yield the fluorescent product naphthotriazole. The reaction was then stopped by adding 10 μl of NaOH (2.8 M), and the fluorescence of the samples was read using excitation frequency 375 nm and emission frequency 415 nm.

CC(C)[C@H](N)C(=O)O[C@@H](C)[C@H](O)[C@H]1CNc2nc(N)[nH]c(=O)c2N1 [Example 5, 2-Amino-3-methyl-butyric acid 2-(2-amino-4-oxo-3,4,5,6,7,8-hexahydro-pteridin-6-yl)-2-hydroxy-1-methyl-ethyl ester dihydrochloride]
bioavailability ([1]; 5 mg/kg, oral 5 mg/kg (BH4 equivalents), n=6, read-out: Absolute Bioavailability of the BH4 Analog): 36% | bioavailability ([1]; 20 mg/kg, oral 20 mg/kg (BH4 equivalents), n=6, read-out: Absolute Bioavailability of the BH4 Analog): 33% | bioavailability ([1]; 20 mg/kg, oral 5 and 20 mg/kg, read-out: absolute bioavailability of Val-BH4 present in plasma): 33 to 36% | Absolute Bioavailability of the BH4 Analog ([1]; oral 5 mg/kg (BH4 equivalents), n=6, 5 mg/kg): 36.2 (26.3) % | absorption and distribution of the analog in plasma ([1]; oral 5 mg/kg, FIG. 10): absorbed quickly and was rapidly distributed by 4 hr | Val-BH4/(BH4 + BH2 + B), analog remaining in systemic circulation ([1]; oral 5 mg/kg, n=6): 36.4 (16.0) % | Val-BH4/BH4, analog remaining in systemic circulation ([1]; oral 5 mg/kg, n=6): 56.3 (25.2) % | Val-BH4/total biopterin, analog remaining in systemic circulation ([1]; oral 5 mg/kg, n=6): 23.5 (5.6) % | Absolute Bioavailability of the BH4 Analog ([1]; oral 20 mg/kg (BH4 equivalents), n=6, 20 mg/kg): 33.2 (29.2) % | Val-BH4/(BH4 + BH2 + B), analog remaining in systemic circulation ([1]; oral 20 mg/kg, n=6): 51.6 (11.6) % | Val-BH4/BH4, analog remaining in systemic circulation ([1]; oral 20 mg/kg, n=6): 81.0 (18.1) % | Val-BH4/total biopterin, analog remaining in systemic circulation ([1]; oral 20 mg/kg, n=6): 40.7 (11.1) % | percent of Val-BH4 remaining in systemic circulation ([1]; oral 5 and 20 mg/kg, based on total biopterin adjusted to Val-BH4): greater than 23.5±5.6% | height of the BH4 peak compared with monkeys administered BH4 [2]: several fold higher | potentiation of eNOS activity (eNOS): did not significantly potentiate eNOS activity
